Laboratory results as given in patent US11932850B2, “Cancer chemoprevention with STAT3 blockers” (Jill M. Siegfried, LLC, priority 2018, dated 2024).
Read-outs that look alike come from different tables or passages of the source.

Tests used:
[1] = test system: cleaved caspase-3 in H1975 xenografts; test: IHC of cleaved caspase-3 in H1975 xenografts at end of treatment; format: in vivo, nude mice; settings: after last day of treatment (day 14)
Source text: For mRNA levels in tumor lysates, CS3D produced a 60-70% reduction of c-Myc gene expression relative to GAPDH compared to CS3M (FIG. 7E). […] Some cleaved caspase 3 staining was localized in nuclei, where caspase-3 is known to be active. Some caspase 3 staining was also evident in fibroblasts.
Immunohistochemical analysis: Tumors were excised for immunohistochemical (IHC) staining; 5-μm (micron) sections were cut from formalin-fixed paraffin-embedded tissue blocks, deparaffinized and rehydrated using successive washes of xylene followed by ethanol. Antigen retrieval was performed in a microwave oven (for 20 minutes) in an unmasking solution containing sodium citrate buffer followed by peroxidase blocking in 3% hydrogen peroxide. The sections were incubated in ABC blocking buffer (Vector laboratories Inc, Burlingame, California) for 1 hour at room temperature. Sections were then stained with H&E (hematoxylin and eosin) or subjected to sequential incubations with different primary antibodies and peroxidase-conjugated goat anti-rabbit secondary antibodies. […] Staining was graded as low (<30% positive cells per field, scored as 1), moderate (30-60% positive cells per field, scored as 2) or high (>60% positive cells per field, scored as 3).

NSCLC cell lines = settings: each NSCLC cell line, regardless of EGFR or KRAS mutation status; one 4-hr transfection
Description: (§1) NSCLC cell lines (201T and H1975) were transfected with CS3D or CS3M (cyclic STAT3 mutant decoy) at concentrations ranging from 0 nM to 600 nM. Using MTS assays, cell viabilities were assessed 72 hours later. Three independent experiments were performed, using 24-well plates and 4 wells/concentration.
(§2) To determine the concentration of CS3D required to inhibit cell viability, increasing concentrations of CS3D was transfected, and after 72 hours, MTS assays were used to assess cell viability. Data were normalized to cells treated with lipofectamine alone.
Dose-response experiments assessing the relative number of metabolically active viable cells were performed by transfecting cells with increasing concentrations of CS3D or CS3M, followed by performance of MTS assays. After 72 hours, 5 mg/ml of MTS reagent was added in the plates and incubated 37° C. for 20 minutes. The plates were then read at 490 nm in a Synergy microplate reader (BioTek, Winooski, Vermont) using Gen5 2.05 software. Data obtained following treatment with C3SD or CS3M were normalized to treatment with lipofectamine alone. […] To assess induction of apoptosis in response to CS3D, H1975 and 201T cells were transfected with 100 nM of CS3M or CS3D. […]

201T cells = test: MTS cell viability assay, 201T; format: cell-based, human
Description: as §1, §2
Fluorescently-labeled CS3M and CS3D (with iFluor) were also produced using enzymatic ligation as described above and used to assess uptake efficiency. Transfections of the cyclic oligonucleotides were performed using Lipofectamine 2000 (Life Technologies) in opti-MEM media (Life Technologies) as follows: Cells were plated at […] confluency, and exposed to transfection media containing the respective circularized oligonucleotides for 24 hours at 37° C. Post-transfection, cell recovery was initiated in media containing 10% heat-inactivated fetal bovine serum.
Dose-response experiments assessing the relative number of metabolically active viable cells were performed by transfecting cells with increasing concentrations of CS3D or CS3M, followed by performance of MTS assays. After 72 hours, 5 mg/ml of MTS reagent was added in the plates and incubated 37° C. for 20 minutes. The plates were then read at 490 nm in a Synergy microplate reader (BioTek, Winooski, Vermont) using Gen5 2.05 software. Data obtained following treatment with C3SD or CS3M were normalized to treatment with lipofectamine alone. […] To assess induction of apoptosis in response to CS3D, H1975 and 201T cells were transfected with 100 nM of CS3M or CS3D. After twenty four hours of transfection, cells were resuspended in annexin V-binding buffer, incubated with 5 μL of propidium iodide (BD Biosciences) and subjected to flow cytometric analysis, using a BD FACS Canto II Flow Cytometer.

H1975 cells = test: Soft agar colony forming assay, H1975; format: cell-based, human
Source text: 1 hr after treatment with EGF.
Following the transfection protocol described above, cells transfected with either CS3D or CS3M were detached from the plate using Trypsin-EDTA (Life Technologies) and seeded at a density of 2×10^4 cells/well (in a 6-well plate) in soft agar to determine the ability of cells to grow in an anchorage-independent setting. Sea Plaque Agarose (Lonza—Rockland, Maine) was used to prepare 0.8% base agarose layer and a 0.48% upper agarose layer containing the transfected cells. 1 ml of appropriate growth media was added into each well and incubated at growth conditions of 37° C. with 5% CO2. Media was replaced every 3-4 days and colony formation was monitored. After 15-20 days, the media was aspirated, and wells were incubated with crystal violet in 10% formalin for 1 h. Using a dissecting scope, colonies were photographed in a 6-well plate (with 4 quadrants/well) using ImageJ software analysis to automatically count colonies, using 35 pixels as a cut-off.

[2] = test system: Myc and Bcl-xL mRNA in NSCLC cells; settings: 300 nM one transfection, 10 ng/ml EGF, 1 hr after EGF
H3225 cells = test: MTS cell viability assay, H3225; format: cell-based, human
[3] = target: T1, pSTAT3-ubiquitin complexes in H1975 cells (Homo sapiens, UniProt P40763); test: p-STAT3 immunoprecipitation and ubiquitin immunoblot; format: cell-based; settings: H1975, 100 nM, 24 hr post-transfection
T1 construct: Post-transfection with either 100 nM CS3D or CS3M, H1975 were lysed in IP lysis buffer; endogenous in cells; host or cells: H1975
T1 sequence (P40763 2-770 limits assumed, one chain of several): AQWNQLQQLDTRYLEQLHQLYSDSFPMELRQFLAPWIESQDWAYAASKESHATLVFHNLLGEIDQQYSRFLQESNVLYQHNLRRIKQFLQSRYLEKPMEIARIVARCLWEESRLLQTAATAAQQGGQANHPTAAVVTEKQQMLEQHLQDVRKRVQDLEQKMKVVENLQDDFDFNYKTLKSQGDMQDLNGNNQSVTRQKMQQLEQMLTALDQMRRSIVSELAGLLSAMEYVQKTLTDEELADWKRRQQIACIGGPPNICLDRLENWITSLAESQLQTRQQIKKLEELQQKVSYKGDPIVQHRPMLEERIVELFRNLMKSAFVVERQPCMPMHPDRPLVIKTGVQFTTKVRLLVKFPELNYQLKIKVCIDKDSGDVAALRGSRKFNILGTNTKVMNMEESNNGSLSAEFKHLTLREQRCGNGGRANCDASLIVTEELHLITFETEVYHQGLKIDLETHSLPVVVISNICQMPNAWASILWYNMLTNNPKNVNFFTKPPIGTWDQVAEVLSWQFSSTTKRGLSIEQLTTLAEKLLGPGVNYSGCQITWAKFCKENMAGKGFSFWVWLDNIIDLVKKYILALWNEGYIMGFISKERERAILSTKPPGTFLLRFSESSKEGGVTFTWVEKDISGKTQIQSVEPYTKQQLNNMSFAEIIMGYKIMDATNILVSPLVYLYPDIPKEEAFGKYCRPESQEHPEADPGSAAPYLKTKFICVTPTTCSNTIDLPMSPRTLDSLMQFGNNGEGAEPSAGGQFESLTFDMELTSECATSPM

NNK-induced lung tumors = test: NNK lung cancer chemoprevention pilot experiment; format: in vivo; settings: 5 mg/kg IV 5 days a wk for 18 wks
Description: In a pilot experiment, 6 FVB/N mice were given 24 mg NNK (3 mg by ip injection, twice a wk×4 wks), followed by 6 wks rest, then IV treatment of 3 mice with either 5 mg/kg CS3D or CS3M 5 days a wk for 18 wks. […] With CS3M, lungs were filled with multiple invasive adenocarcinomas, while in mice receiving CS3D, tumor burden was reduced over 80%. H&E (hematoxylin and eosin) sections were taken of murine lungs exposed to NNK followed by treatment with CS3M or CS3D for 18 wks. Invasive carcinomas were prominent with CS3M and lacking with CS3D.

[4] = test system: c-Myc mRNA in H1975 cells; test: RT-qPCR of c-Myc mRNA after EGF, H1975; format: cell-based, human; settings: single transfection, EGF 10 ng/ml 1.5 hr

Substance: CS3D (DNA GATTTACGGGAAATGCSCATTTCCC; cyclic decoy with two hexaethylene glycol linkers, further chemistry not given here)
- fields scoring high level of cleaved caspase-3 [1]: 83%
- IC50 (NSCLC cell lines): ~300 nM
- inhibition in proliferation (201T cells; 0.3 μM transfection, 201T, relative to CS3M): 50%
- IC50 (201T cells; 201T (WT EGFR), MTS 72 hours, read-out: IC50): ~300 nM
- IC50 (201T cells; 201T, EGFR WT, KRAS WT, MTS at 72 hours after transfection, read-out: CS3D IC50): 300 nM
- disruption of anchorage-independent growth (H1975 cells; 300 nM single transfection, at 15 days, H1975, compared to CS3M): 70%
- reduction of colony formation in soft agar (H1975 cells; one transfection, H1975 (FIG. 4A)): 65%
- reduction of Bcl-Xl mRNA expression in response to EGF [2]: ≥ 60%
- reduction of c-Myc mRNA expression in response to EGF [2]: ≥ 60%
- IC50 (H3225 cells): 300 nM
- ratio of pSTAT3-ubiquitin complex to STAT3 (densitometry) [3]: 0.95
- toxic effects (NNK-induced lung tumors): no discernable toxic effects
- reduction of tumor burden (NNK-induced lung tumors; 24 mg NNK, 6 wks rest, vs CS3M): over 80%
- inhibition in mRNA level of c-Myc [4]: 25-30%
